Assays:
ECHSS = experiment: Test in transplanted paddy rice (greenhouse), water-surface application; type: in vivo, Echinochloa; conditions: 135 g/ha, 3 weeks after application
Text: (§1) Test in Transplanted Paddy Rice
(§2) To produce a preparation of active compound, 1 part by weight of an active compound combination according to the invention is mixed with the stated amount of solvent and, after addition of the stated amount of emulsifier, diluted with water to the desired concentration.
(§3) Vessels for planting (500 cm^2) are filled with soil from a rice field. In each case 3 rice plants (cultivar: Nipponbare, 2-3-leaf stage, height: about 15 cm) are planted into the center of the vessels for planting. Seeds of Cyperus, Echinochloa, Lindernia, Rotala and Elatine are sown into the same vessels for planting. The soil in the vessels is kept moist. After two days, each vessel for planting is flooded to a water depth of 2-3 cm.
(§4) Five days after the transplanting of the rice plants, the amount of active compound in the preparation described above is applied to the surface of the water in the vessels for planting using a pipette. The water depth in the vessels for planting is kept at 2-3 cm.
(§5) 3 weeks after the application of active compound, the efficacy is rated in % damage in comparison to the untreated control.
(§6) The figures denote • 0% no effect/damage (like untreated control) • 100% total destruction

CYPDI = experiment: as above; type: in vivo, Cyperus; conditions: 135 g/ha, 3 weeks after application
Text: as §1, §2, §3, §4, §5, §6

ROTIN = experiment: as above; type: in vivo, Rotala; conditions: 3 weeks after application
Text: as §1, §2, §3, §4, §5, §6

LIDPY = experiment: as above; type: in vivo, Lindernia; conditions: 3 weeks after application
Text: as §1, §2, §3, §4, §5, §6

ELTTP = experiment: as above; type: in vivo, Elatine; conditions: 3 weeks after application
Text: as §1, §2, §3, §4, §5, §6

Abutilon theophrasti = experiment: Post-emergence greenhouse spray test; type: in vivo; conditions: about 3 weeks
Protocol: (§7) The required amount of active compound or formulation is dissolved in a few milliliters (2-3 ml) of the solvent (acetone or DMF), an emulsifier (1 ml) is added, if required, and the mixture is diluted with water to the desired concentration.
(§8) Mixtures are prepared by mixing a predetermined dissolved amount of the first active compound with the required amount of the second active compound (and, if desired, with additional active compounds/formulations or other ingredients), and then diluting the mixture with water to the desired concentration.
(§9) In pre- and post-emergence experiments, a surfactant (Renex 36) is usually added, at a concentration of 0.1%, to the spray solution.
(§10) The amount of active compound or formulation is chosen such that the desired application rate per ha is achieved.
(§11) Test plants are grown under controlled conditions (temperature and light). Once the plants have reached a height of 5-15 cm, the test compound or the combination of test compounds is applied by spraying such that the particular amounts of active compound desired are applied per unit area. The concentration of the spray liquor is chosen such that the desired amounts of active compound are in each case applied in 500 1 of water/ha.
(§12) After the spray application, the vessels containing the plants are stored in a greenhouse under constant conditions with respect to light and temperature.
(§13) After about 3 weeks, the degree of damage to the plants is rated in % damage in comparison to the development of the untreated control.
(§14) The figures denote: • 0%=no damage (like untreated control) • 100%=total destruction/damage • a.i.=active ingredient Flufenacet Tested as 60 WG • (I-31)/(I-34) tested as active compounds • * values calculated according to Colby

Amaranthus retroflexus = experiment: Post-emergence greenhouse spray test; type: in vivo; conditions: about 3 weeks
Protocol: as §7, §8, §9, §10, §11, §12, §13, §14

Chenopodium album = experiment: Post-emergence greenhouse spray test; type: in vivo; conditions: about 3 weeks
Protocol: as §7, §8, §9, §10, §11, §12, §13, §14

Digitaria sanguinalis = experiment: Post-emergence greenhouse spray test; type: in vivo; conditions: about 3 weeks
Protocol: as §7, §8, §9, §10, §11, §12, §13, §14

Solanum nigrum = experiment: Post-emergence greenhouse spray test; type: in vivo; conditions: about 3 weeks
Protocol: as §7, §8, §9, §10, §11, §12, §13, §14

## CCN(C(=O)n1nnn(-c2ccccc2Cl)c1=O)C1CCCCC1 [fentrazamide, 4-(2-chloro-phenyl)-N-cyclohexyl-N-ethyl-4,5-dihydro-5-oxo-1H-tetrazole-1-carboxamide, reference compound]
ECHSS
  efficacy in % damage, Compound (II) alone: 70%
CYPDI
  efficacy in % damage, Compound (II) alone: 60%
ROTIN; 135 g/ha
  efficacy in % damage, Compound (II) alone: 60%
LIDPY; 135 g/ha
  efficacy in % damage, Compound (II) alone: 60%
ELTTP; 135 g/ha
  efficacy in % damage, Compound (II) alone: 60%

## Cn1nnn(CCOc2c(Cl)ccc(C(=O)C3C(=O)CCCC3=O)c2Cl)c1=O [Example I-22, 2-[2,4-dichloro-3-[2-(4-methyl-5-oxo-4,5-dihydro-1H-tetrazol-1-yl)-ethoxy]-benzoyl]-1,3-cyclohexanedione]
ROTIN; 30 g/ha
  efficacy in % damage, Compound (I) alone: 70%
LIDPY; 30 g/ha
  efficacy in % damage, Compound (I) alone: 70%
ELTTP; 30 g/ha
  efficacy in % damage, Compound (I) alone: 60%

## CC(C)N(C(=O)COc1nnc(C(F)(F)F)s1)c1ccc(F)cc1 [Flufenacet, N-(4-fluoro-phenyl)-N-i-propyl-2-(5-trifluoromethyl-1,3,4-thiadiazol-2-yl-oxy)-acetamide, reference compound]
Abutilon theophrasti; 125 g of ai/ha
  Abutilon theophrasti observed (% damage): 0%
Amaranthus retroflexus; 125 g of ai/ha
  Amaranthus retroflexus observed (% damage): 60%
Chenopodium album; 125 g of ai/ha
  Chenopodium album observed (% damage): 0%
Digitaria sanguinalis; 125 g of ai/ha
  Digitaria sanguinalis observed (% damage): 70%
Solanum nigrum; 125 g of ai/ha
  Solanum nigrum observed (% damage): 30%

## O=C1CC[C@@H](COc2c(Br)ccc(C(=O)C3C(=O)CCCC3=O)c2Br)N1 [Example I-31, (5S)-5-[[2,6-dibromo-3-[(2,6-dioxo-1-cyclohexyl)-carbonyl]-phenoxy]-methyl]-2-pyrrolidinone]
Abutilon theophrasti; 15 g of ai/ha
  Abutilon theophrasti observed (% damage): 0%
Abutilon theophrasti; 30 g of ai/ha
  Abutilon theophrasti observed (% damage): 10%
Amaranthus retroflexus; 8 g of ai/ha
  Amaranthus retroflexus observed (% damage): 0%
Amaranthus retroflexus; 15 g of ai/ha
  Amaranthus retroflexus observed (% damage): 0%
Amaranthus retroflexus; 30 g of ai/ha
  Amaranthus retroflexus observed (% damage): 0%
Chenopodium album; 15 g of ai/ha
  Chenopodium album observed (% damage): 0%
Chenopodium album; 30 g of ai/ha
  Chenopodium album observed (% damage): 20%
Solanum nigrum; 30 g of ai/ha
  Solanum nigrum observed (% damage): 10%

## O=C1CC[C@@H](COc2c(Cl)ccc(C(=O)C3C(=O)CCCC3=O)c2Cl)N1 [Example I-34, (5S)-5-[[2,6-dichloro-3-[(2,6-dioxo-1-cyclohexyl)-carbonyl]-phenoxy]-methyl]-2-pyrrolidinone]
Amaranthus retroflexus; 15 g of ai/ha
  Amaranthus retroflexus observed (% damage): 0%
Amaranthus retroflexus; 30 g of ai/ha
  Amaranthus retroflexus observed (% damage): 0%
Chenopodium album; 15 g of ai/ha
  Chenopodium album observed (% damage): 90%
Chenopodium album; 30 g of ai/ha
  Chenopodium album observed (% damage): 90%
Digitaria sanguinalis; 15 g of ai/ha
  Digitaria sanguinalis observed (% damage): 0%
Digitaria sanguinalis; 30 g of ai/ha
  Digitaria sanguinalis observed (% damage): 0%

From patent US20050192182A1, “Herbicidal mixtures based on substituted aryl ketones” (priority 2001, published 2005)
